{"source": "paper PMC10047683", "about": "“A Novel Family of Lysosomotropic Tetracyclic Compounds for Treating Leukemia” (Cancers, 2023)", "key": {"HL60": {"system": "HL60", "test": "Dose-response viability curves in AML cell lines", "assay_type": "cell-based", "conditions": "Homo sapiens, HL-60, 48 h", "method": "(§1) First, 2 × 10^5 (72 h assays in cell lines (Supplementary File S1)), 3 × 10^5 (48 h assays in cell lines) or 7.5 × 10^5 (primary AML, healthy donor buffy coats) cells per mL were cultured in 96-well plates, and all drugs were added at the indicated concentrations. In α-tocopherol experiments, cells were treated with growing concentrations of α-tocopherol and EDK drugs for 48 h. In the NAC and 3MA experiments, treatment was simultaneous with EDK compounds. In glucose deprivation experiments, cells were cultivated with a standard medium (glucose high, 2 g/L), a standard medium without glucose, or a standard medium with galactose (2 g/L) and without glucose. Cell viability was measured via 7-AAD (eBioscience) exclusion and Hoechst33342 (Sigma-Aldrich, St. Louis, MO, USA) positivity staining via flow cytometry, and the cell count was obtained through volume. In the experiments with the primary cells, analyses were performed inside the blast population as detected via blast gates (CD45^low SSC^int). For solid tumor cell lines, viability was analyzed using CellTiter-Glo® Luminescent Cell Viability Assay (Promega)."}, "KG1": {"system": "KG1", "test": "Dose-response viability curves in AML cell lines", "assay_type": "cell-based", "conditions": "Homo sapiens, KG-1, 48 h", "method": "as §1"}, "Kasumi-1": {"system": "Kasumi-1", "test": "Dose-response viability curves in AML cell lines", "assay_type": "cell-based", "conditions": "Homo sapiens, 48 h", "method": "as §1"}, "MonoMac1": {"system": "MonoMac1", "test": "Dose-response viability curves in AML cell lines", "assay_type": "cell-based", "conditions": "Mono-Mac-1, 48 h", "method": "as §1"}, "SKM-1": {"system": "SKM-1", "test": "Dose-response viability curves in AML cell lines", "assay_type": "cell-based", "conditions": "Homo sapiens, 48 h", "method": "as §1"}, "THP1": {"system": "THP1", "test": "Dose-response viability curves in AML cell lines", "assay_type": "cell-based", "conditions": "Homo sapiens, THP-1, 48 h", "method": "as §1"}, "U937": {"system": "U937", "test": "Dose-response viability curves in AML cell lines", "assay_type": "cell-based", "conditions": "Homo sapiens, U-937, 48 h", "method": "as §1"}, "primary AML samples": {"system": "primary AML samples", "test": "Cytotoxicity in primary AML samples (flow cytometry, blast gate)", "assay_type": "cell-based, human", "from_the_text": "Primary AML samples were obtained at diagnosis from patients diagnosed at Hospital Clínic of Barcelona (Spain) and Hospital Germans Trias i Pujol (Badalona, Spain). AML diagnosis, classification, and risk stratification were based on the latest revised WHO criteria (Supplementary Table S1). Clinical characteristics of AML patients are summarized in Supplementary Table S1. Mononuclear cells (MNCs) were isolated with Ficoll density gradient centrifugation (GE Healthcare, Chicago, IL, USA). All patients provided their written informed consent in accordance with the Declaration of Helsinki, and the study was approved by the corresponding ethics committees. Mature blood MNCs were isolated from healthy donors’ buffy coats provided by Banc de Sang i Teixits (BSiT, Barcelona, Spain). Umbilical-cord blood was provided by BSiT, and MNCs were depleted for lineage marker-positive cells using magnetic separation with the Human Lineage Cell Depletion kit (Miltenyi Biotec, North Rhine-Westphalia, Germany) following the manufacturer’s recommendations.\nas §1"}, "KG-1": {"system": "KG-1", "test": "7AAD and annexin-V staining, flow cytometry", "assay_type": "cell-based", "conditions": "10 µM, 24 h, representative plot", "method": "(§2) Seahorse studies were performed using the Agilent Seahorse XF Real-Time ATP Rate Assay Kit. Briefly, MonoMac1 and HL60 cells were suspended in complete medium at a concentration of 5 × 10^5 cells per ml and treated with EDK-87/EDK-88 with the indicated compounds for 18 h. Cells were washed and suspended in Seahorse medium (Seahorse XF medium with 2 mM glutamine, 10 mM glucose, 2 mM pyruvate) at a concentration of 1.4 × 10^6 (Mono Mac1) and 2.4 × 10^6 (HL60) cells per mL; 50 μL per well were seeded in 96-well Seahorse plates precoated with polylysine, centrifuged, and left to adhere for 20 min at 37 °C before adding prewarmed Seahorse medium to a final volume of 180 μL per well. Basal OCR and ECAR were measured, and the ATP rate assay was performed with the sequential injection of 1.5 μM oligomycin and 0.5 μM rotenone/antimycin A. A detailed description of this protocol was provided by the manufacturers. Mitochondrial ROS was quantified using the MitoSOX Red Mitochondrial Superoxide Indicator (Thermo Fischer Scientific, Waltham, MA, USA), as previously described. The activation of executive caspases was determined using CaspaseGlo® 3/7 Assay (Promega), following the manufacturer’s recommendations. The detection of Annexin-V staining was also described previously."}, "MonoMac-1": {"system": "MonoMac-1", "test": "7AAD and annexin-V staining, flow cytometry", "assay_type": "cell-based", "conditions": "10 µM, 24 h, representative plot", "method": "as §2"}, "[1]": {"test": "ADME-Tox: clearance / metabolic rate", "assay_type": "in vitro ADME", "method": "(§3) All ADMET studies were performed in Eurofins Discovery Services (CEREP laboratories, Celle-Lévescault France). The pharmacokinetic studies were performed in Draconis Pharma SL (Barcelona, Spain) in CD-1 mice treated with 30 mg/kg EDK87 or EDK88 via SC or OG. Blood was collected by cardiac puncture at 0.5, 1, 2, 4, or 24 h."}, "[2]": {"test": "Pharmacokinetic study in mice", "assay_type": "in vivo, CD-1 mice", "conditions": "30 mg/kg orally and subcutaneously", "method": "as §3"}}}
{"smiles": "CN1CCC(=C2c3ccccc3-c3c2sc2ccccc32)CC1", "note": "[EDK-87]", "values": [{"measurement": "EC50", "setting": "HL60", "result": "6.2 ± 0.9", "unit": "µM"}, {"measurement": "EC50", "setting": "KG1", "result": "7 ± 1.2", "unit": "µM"}, {"measurement": "EC50", "setting": "Kasumi-1", "result": "6.3 ± 0.35", "unit": "µM"}, {"measurement": "EC50", "setting": "MonoMac1", "result": "8.6 ± 1.4", "unit": "µM"}, {"measurement": "EC50", "setting": "SKM-1", "result": "8.1 ± 1.8", "unit": "µM"}, {"measurement": "EC50", "setting": "THP1", "result": "11.2 ± 0.01", "unit": "µM"}, {"measurement": "EC50", "setting": "U937", "result": "6.9 ± 0.07", "unit": "µM"}, {"measurement": "reduced the numbers of primary leukemic cells", "setting": "primary AML samples; 14 primary AML samples, 72 h, EDK-87 10 and 25 µM, EDK-88 5 and 10 µM assayed", "result": "43% ± 8.5"}, {"measurement": "# Live cells refer to control", "setting": "primary AML samples; AML sample #61, 5 µM, 72 h", "result": 112, "unit": "%"}, {"measurement": "# Live cells refer to control", "setting": "primary AML samples; AML sample #61, 10 µM, 72 h", "result": 107, "unit": "%"}, {"measurement": "# Live cells refer to control", "setting": "primary AML samples; AML sample #61, 25 µM, 72 h", "result": 47, "unit": "%"}, {"measurement": "# Live cells refer to control", "setting": "primary AML samples; AML sample #63, 5 µM, 72 h", "result": 71, "unit": "%"}, {"measurement": "# Live cells refer to control", "setting": "primary AML samples; AML sample #63, 10 µM, 72 h", "result": 37, "unit": "%"}, {"measurement": "# Live cells refer to control", "setting": "primary AML samples; AML sample #63, 25 µM, 72 h", "result": 13, "unit": "%"}, {"measurement": "# Live cells refer to control", "setting": "primary AML samples; AML sample #98, 5 µM, 72 h", "result": 59, "unit": "%"}, {"measurement": "# Live cells refer to control", "setting": "primary AML samples; AML sample #98, 10 µM, 72 h", "result": 26, "unit": "%"}, {"measurement": "# Live cells refer to control", "setting": "primary AML samples; AML sample #98, 25 µM, 72 h", "result": 5, "unit": "%"}, {"measurement": "# Live cells refer to control", "setting": "primary AML samples; AML sample #130, 5 µM, 72 h", "result": 97, "unit": "%"}, {"measurement": "# Live cells refer to control", "setting": "primary AML samples; AML sample #130, 10 µM, 72 h", "result": 97, "unit": "%"}, {"measurement": "# Live cells refer to control", "setting": "primary AML samples; AML sample #130, 25 µM, 72 h", "result": 35, "unit": "%"}, {"measurement": "# Live cells refer to control", "setting": "primary AML samples; AML sample #132, 5 µM, 72 h", "result": 74, "unit": "%"}, {"measurement": "# Live cells refer to control", "setting": "primary AML samples; AML sample #132, 10 µM, 72 h", "result": 60, "unit": "%"}, {"measurement": "# Live cells refer to control", "setting": "primary AML samples; AML sample #133, 5 µM, 72 h", "result": 60, "unit": "%"}, {"measurement": "# Live cells refer to control", "setting": "primary AML samples; AML sample #133, 10 µM, 72 h", "result": 19, "unit": "%"}, {"measurement": "# Live cells refer to control", "setting": "primary AML samples; AML sample #134, 5 µM, 72 h", "result": 97, "unit": "%"}, {"measurement": "# Live cells refer to control", "setting": "primary AML samples; AML sample #134, 10 µM, 72 h", "result": 89, "unit": "%"}, {"measurement": "# Live cells refer to control", "setting": "primary AML samples; AML sample #135, 5 µM, 72 h", "result": 94, "unit": "%"}, {"measurement": "# Live cells refer to control", "setting": "primary AML samples; AML sample #135, 10 µM, 72 h", "result": 80, "unit": "%"}, {"measurement": "# Live cells refer to control", "setting": "primary AML samples; AML sample #135, 25 µM, 72 h", "result": 14, "unit": "%"}, {"measurement": "# Live cells refer to control", "setting": "primary AML samples; AML sample #136, 5 µM, 72 h", "result": 97, "unit": "%"}, {"measurement": "# Live cells refer to control", "setting": "primary AML samples; AML sample #136, 10 µM, 72 h", "result": 51, "unit": "%"}, {"measurement": "# Live cells refer to control", "setting": "primary AML samples; AML sample #136, 25 µM, 72 h", "result": 2, "unit": "%"}, {"measurement": "# Live cells refer to control", "setting": "primary AML samples; AML sample #141, 5 µM, 72 h", "result": 77, "unit": "%"}, {"measurement": "# Live cells refer to control", "setting": "primary AML samples; AML sample #141, 10 µM, 72 h", "result": 52, "unit": "%"}, {"measurement": "# Live cells refer to control", "setting": "primary AML samples; AML sample #147, 5 µM, 72 h", "result": 17, "unit": "%"}, {"measurement": "# Live cells refer to control", "setting": "primary AML samples; AML sample #148, 5 µM, 72 h", "result": 47, "unit": "%"}, {"measurement": "# Live cells refer to control", "setting": "primary AML samples; AML sample #148, 10 µM, 72 h", "result": 5, "unit": "%"}, {"measurement": "# Live cells refer to control", "setting": "primary AML samples; AML sample #152, 5 µM, 72 h", "result": 83, "unit": "%"}, {"measurement": "# Live cells refer to control", "setting": "primary AML samples; AML sample #152, 10 µM, 72 h", "result": 56, "unit": "%"}, {"measurement": "# Live cells refer to control", "setting": "primary AML samples; AML sample #153, 5 µM, 72 h", "result": 78, "unit": "%"}, {"measurement": "# Live cells refer to control", "setting": "primary AML samples; AML sample #153, 10 µM, 72 h", "result": 65, "unit": "%"}, {"measurement": "therapeutic window (viability)", "setting": "primary AML samples; primary AML vs healthy-donor blood cells", "result": 2.4}, {"measurement": "Q1 of 7AAD/annexin V plot", "setting": "KG-1", "result": 0.61}, {"measurement": "Q2 of 7AAD/annexin V plot", "setting": "KG-1", "result": 10.0}, {"measurement": "Q3 of 7AAD/annexin V plot", "setting": "KG-1", "result": 50.3}, {"measurement": "Q4 of 7AAD/annexin V plot", "setting": "KG-1", "result": 39.1}, {"measurement": "Q1 of 7AAD/annexin V plot", "setting": "MonoMac-1", "result": 2.96}, {"measurement": "Q2 of 7AAD/annexin V plot", "setting": "MonoMac-1", "result": 9.41}, {"measurement": "Q3 of 7AAD/annexin V plot", "setting": "MonoMac-1", "result": 21.7}, {"measurement": "Q4 of 7AAD/annexin V plot", "setting": "MonoMac-1", "result": 65.9}, {"measurement": "metabolic rate as compared to EDK-88", "setting": "[1]", "result": "higher"}, {"measurement": "clearance (PK)", "setting": "[2]", "result": "high"}, {"measurement": "plasma level", "setting": "[2]", "result": "low"}, {"measurement": "volume of distribution", "setting": "[2]", "result": "high"}]}
